Assay results taken from US8618111B2, “5-alkynyl-pyrimidines” (Boehringer Ingelheim International GmbH, priority 2010, dated 2013).

Legend:
PI3Kalpha = PI3Kalpha (Homo sapiens (Human), UniProt P42336); assay: Inhibition of PI3Kalpha-induced PIP-2 phosphorylation (filter-binding assay); format: biochemical; settings: 33P-ATP
Protocol: Inhibition of PI3Kalpha-Induced PIP-2 Phosphorylation
Method Type: Filter-Binding-Assay
Aliquoted in desired amounts and stored at −80° C. Final assay concentration 25 ng/well.

mTOR = mTOR (Homo sapiens (Human), UniProt P42345); assay: mTOR kinase activity assay (phosphorylation status of mTOR substrate 4E-BP1; TR-FRET); format: biochemical; settings: GFP-4E-BP1 substrate, 8 μM ATP
mTOR, sequence (P42345 1360-2549): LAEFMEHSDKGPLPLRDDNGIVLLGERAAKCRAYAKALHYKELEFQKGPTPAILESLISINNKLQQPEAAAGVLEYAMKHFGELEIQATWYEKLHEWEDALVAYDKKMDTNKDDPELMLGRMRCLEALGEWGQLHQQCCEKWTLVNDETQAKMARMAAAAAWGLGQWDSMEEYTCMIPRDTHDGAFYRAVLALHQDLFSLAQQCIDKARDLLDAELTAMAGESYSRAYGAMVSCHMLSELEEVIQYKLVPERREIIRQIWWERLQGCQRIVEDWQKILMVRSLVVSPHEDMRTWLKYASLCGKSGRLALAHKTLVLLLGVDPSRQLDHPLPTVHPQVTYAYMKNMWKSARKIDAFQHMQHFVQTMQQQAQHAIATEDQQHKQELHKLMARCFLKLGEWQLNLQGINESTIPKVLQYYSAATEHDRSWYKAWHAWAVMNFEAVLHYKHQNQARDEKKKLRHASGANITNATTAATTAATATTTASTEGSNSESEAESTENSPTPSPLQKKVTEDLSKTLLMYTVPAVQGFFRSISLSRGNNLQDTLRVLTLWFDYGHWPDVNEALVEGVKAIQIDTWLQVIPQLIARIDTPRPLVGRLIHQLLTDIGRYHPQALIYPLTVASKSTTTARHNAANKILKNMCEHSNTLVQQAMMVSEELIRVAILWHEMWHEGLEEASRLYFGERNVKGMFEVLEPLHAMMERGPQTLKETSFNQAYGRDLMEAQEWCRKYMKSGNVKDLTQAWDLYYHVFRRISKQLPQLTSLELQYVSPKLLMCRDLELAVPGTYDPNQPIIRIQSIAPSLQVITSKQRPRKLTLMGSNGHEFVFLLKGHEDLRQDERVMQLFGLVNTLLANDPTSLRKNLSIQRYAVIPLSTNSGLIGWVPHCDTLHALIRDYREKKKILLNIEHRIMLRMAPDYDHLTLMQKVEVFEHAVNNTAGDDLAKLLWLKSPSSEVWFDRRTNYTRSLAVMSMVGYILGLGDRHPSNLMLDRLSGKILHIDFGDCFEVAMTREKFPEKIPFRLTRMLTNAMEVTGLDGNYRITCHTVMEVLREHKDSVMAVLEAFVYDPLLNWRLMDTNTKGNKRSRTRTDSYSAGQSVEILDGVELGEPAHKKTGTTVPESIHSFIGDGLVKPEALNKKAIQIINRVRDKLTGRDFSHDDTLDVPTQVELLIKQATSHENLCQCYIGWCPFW
Protocol: mTOR Kinase Activity Assay
(Phosphorylation Status of mTOR Substrate 4E-BP1; TR-FRET)
The mTOR kinase TR-FRET assay utilizes a physiologically relevant protein substrate for mTOR (4E-BP1, labeled with an acceptor fluorophore (Green Fluorescent Protein) and paired with a corresponding Tb-labeled phospho-specific antibody.
The assay itself is divided into two phases: the reaction phase and the detection phase. In the reaction phase, all components required for the kinase reaction are added to the well, including the labeled protein substrate. The reaction is allowed to incubate for 60 minutes. After the reaction, EDTA is added to stop the kinase reaction, and terbium-labeled antibody is added to bind phosphorylated product. Because the terbium chelate is stable at the EDTA concentrations used to stop a kinase assay, the antibody and EDTA can be pre-mixed prior to addition to minimize pipetting steps. Binding of the terbium labeled antibody to the fluorophore-labeled phosphorylated product brings the terbium and GFP into proximity, resulting in an increase in TR-FRET. In the presence of an inhibitor, formation of phosphorylated product is reduced, and the TR-FRET value is decreased.
• GFP-4E-BP1 substrate; Invitrogen order no. PV4759 • Lanthascreen Tb-anti-p4E-BP1 (pThr46) Antibody Kit; Invitrogen order no. PV4758 • FRAP1 (mTOR) kinase; Invitrogen order no.
400 nM GFP-4E-BP1, 8 μM ATP, ˜150 ng/mL mTOR, 50 mM HEPES pH 7.5, 0.01% Polysorbate 20, 1 mM EGTA, 10 mM MnCl2, and variable amounts of test compounds.
Note: Thaw and keep mTOR, the substrate, ATP, and the antibody on ice prior to making working dilutions. Working dilutions of these components can be kept at room temperature for short periods of time the day of use. • 1. Add 2 ml of 5× Assay Buffer to 8 ml water to prepare 10 ml of 1× Assay Buffer, wherein the concentration of 1× Assay Buffer is 50 mM HEPES pH 7.5, 0.01% Polysorbate 20, 1 mM EGTA, and 10 mM MnCl2. • 2. Prepare Antibody/EDTA Solution by first adding 2.75 μl of Tb-anti p4E-BP1 Antibody to 2397 μl of LanthaScreen™ TR-FRET Dilution Buffer. Then, add 100 μl of 0.5 M EDTA. • 3. […] Then, add 1.6 μl of mTOR (0.45 mg/mL). • 4. Prepare ATP Solution by adding 3.2 μl of 10 mM ATP to 1997 μl of 1× Assay Buffer. Serial Dilution of Inhibitors (16 Point Curve)
Inhibitors are serially diluted in DMSO, then diluted to a 4× working concentration with 1× Assay Buffer. • 1. Dispense 40 μl of DMSO to two adjacent columns of a 96 well plate per compound (e.g. columns 1 and 2). • 2. Add 10 μl of inhibitor stock (10 mM) to the first well of the first column (A1) and mix. • 3. Remove 10 μl from A1 and transfer to the adjacent well in the next column (B1) and mix. • 4. Remove 10 μl from B1 and transfer to the next well in the first column (B2) and mix. • 5. […] Remove 4 μl of diluted compounds and add to 96 μl of 1× Assay Buffer in a 96-well plate making 4× compound dilutions. Kinase Reaction • 1. Add 2.5 μl of 4X compound dilutions to a 384-well plate. • 2. […] Preincubate for […] at RT (shaker). • 5. Add 5 μl of ATP Solution to all wells to start reactions. • 6. Shake the assay plate on a plate shaker for 30 seconds. • 7. Incubate the assay plate for one hour at room temperature (20-25° C.). Stop Step and Fluorescence Detection • 1. Add 10 μl of Antibody/EDTA Solution to each well in columns 1-9. • 2. Shake the assay plate on a plate shaker for 30 seconds. • 3. Incubate the assay plate for one hour at room temperature (20-25° C.). • 4. Measure the GFP (FRET) and terbium (reference) emission signals on a fluorescence plate reader (e.g. Perkin Elmer Envision). Data Analysis • 1. Calculate the emission ratio for each sample by dividing the GFP (FRET) signal by the terbium (reference) signal. • 2.

[1] = system: PC3 (human prostate carcinoma cell line) cells; assay: PC3 proliferation test; format: cell-based; settings: PC-3, 72 h, 3 days incubation, DNA dye fluorescence
Protocol: The test is based on measurement of cellular DNA content via fluorescent dye binding. Because cellular DNA content is highly regulated, it is closely proportional to cell number. The extent of proliferation is determined by comparing cell counts for samples treated with drugs with untreated controls.
PC3 (human prostate carcinoma cell line) cells are sown in microtitre plates and incubated overnight in culture medium at 37° C. and 5% CO2. The test substances are diluted stepwise and added to the cells such that the total volume is 200 μL/well. Cells to which diluent, but not substance, is added serve as controls.

PI3Kalpha, sequence (P42336 whole entry, species assumed): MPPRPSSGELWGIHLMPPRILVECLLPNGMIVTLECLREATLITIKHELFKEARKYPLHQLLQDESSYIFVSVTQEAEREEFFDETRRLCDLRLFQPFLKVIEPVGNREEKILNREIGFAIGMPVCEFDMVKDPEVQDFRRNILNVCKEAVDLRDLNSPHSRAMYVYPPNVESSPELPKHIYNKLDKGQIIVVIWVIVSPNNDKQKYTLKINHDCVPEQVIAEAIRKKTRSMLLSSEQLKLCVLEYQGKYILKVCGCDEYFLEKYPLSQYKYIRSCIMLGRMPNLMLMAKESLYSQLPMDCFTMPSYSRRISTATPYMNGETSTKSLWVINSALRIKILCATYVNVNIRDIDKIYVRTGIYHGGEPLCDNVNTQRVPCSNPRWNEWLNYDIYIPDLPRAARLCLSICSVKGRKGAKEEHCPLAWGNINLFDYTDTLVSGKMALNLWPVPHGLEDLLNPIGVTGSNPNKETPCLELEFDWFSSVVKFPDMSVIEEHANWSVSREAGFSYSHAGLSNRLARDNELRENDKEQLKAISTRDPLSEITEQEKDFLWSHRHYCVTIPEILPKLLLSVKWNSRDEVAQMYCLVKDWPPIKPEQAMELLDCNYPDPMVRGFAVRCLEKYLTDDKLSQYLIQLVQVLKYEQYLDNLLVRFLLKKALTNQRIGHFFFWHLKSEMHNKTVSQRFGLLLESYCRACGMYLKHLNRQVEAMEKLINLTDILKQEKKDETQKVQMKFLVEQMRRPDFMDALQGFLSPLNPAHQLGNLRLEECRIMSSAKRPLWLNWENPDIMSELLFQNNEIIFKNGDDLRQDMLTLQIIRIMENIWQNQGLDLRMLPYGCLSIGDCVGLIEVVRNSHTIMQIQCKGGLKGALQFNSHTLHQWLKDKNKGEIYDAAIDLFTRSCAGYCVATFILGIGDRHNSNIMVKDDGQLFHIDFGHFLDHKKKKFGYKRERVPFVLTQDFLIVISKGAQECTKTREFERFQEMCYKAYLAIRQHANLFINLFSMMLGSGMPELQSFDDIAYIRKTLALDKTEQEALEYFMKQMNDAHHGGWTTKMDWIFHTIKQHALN
PI3Kalpha, sequence (P27986 whole entry partner, species assumed): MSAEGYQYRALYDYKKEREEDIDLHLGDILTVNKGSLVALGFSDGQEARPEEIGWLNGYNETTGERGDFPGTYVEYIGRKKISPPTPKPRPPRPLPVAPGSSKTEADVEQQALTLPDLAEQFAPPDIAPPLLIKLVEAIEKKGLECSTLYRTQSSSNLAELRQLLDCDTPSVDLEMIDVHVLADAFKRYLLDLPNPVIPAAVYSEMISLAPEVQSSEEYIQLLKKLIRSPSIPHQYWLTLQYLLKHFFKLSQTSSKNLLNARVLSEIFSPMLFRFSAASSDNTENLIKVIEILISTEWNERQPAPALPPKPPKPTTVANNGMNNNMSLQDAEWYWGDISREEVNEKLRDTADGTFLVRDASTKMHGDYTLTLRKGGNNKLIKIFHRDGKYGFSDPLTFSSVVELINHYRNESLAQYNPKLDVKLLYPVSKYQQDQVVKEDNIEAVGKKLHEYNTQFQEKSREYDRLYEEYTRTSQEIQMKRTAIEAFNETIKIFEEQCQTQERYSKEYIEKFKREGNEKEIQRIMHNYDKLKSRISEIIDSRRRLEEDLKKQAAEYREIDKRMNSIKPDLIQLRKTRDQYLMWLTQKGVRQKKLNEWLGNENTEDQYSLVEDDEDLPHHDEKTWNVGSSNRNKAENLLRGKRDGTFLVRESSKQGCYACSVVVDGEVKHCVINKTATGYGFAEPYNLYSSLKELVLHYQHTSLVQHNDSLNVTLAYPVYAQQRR

Compound	IC50 PI3Ka (PI3Kalpha) [nM]	IC50 (mTOR) [nM]	EC50 [1] [nM]
CC(=O)NCC1CCN(c2ncnc(C)c2C#Cc2ccc(N)nc2)CC1 [Example F-1]	36	15	135
Cc1ncnc(N2CCC(O)(C3CCCCC3)CC2)c1C#Cc1ccc(N)nc1 [Example B-74]	98	30	195
CCc1ncnc(N2CCN(CCOC)CC2)c1C#Cc1ccc(N)nc1 [Example B-55]	718	26	191
CCc1ncnc(N2CCC(O)(C(F)(F)F)CC2)c1C#Cc1ccc(C)nc1 [Example B-31]	172	37	80
CCc1ncnc(N2CCCC(NC(C)=O)C2)c1C#Cc1ccc(N)nc1 (stereo not drawn) [Example B-20]	167	16	158
CCc1ncnc(N2CCC(O)(C(C)C)CC2)c1C#Cc1ccc(C)nc1 [Example B-35]	172	23	168
CCc1ncnc(N2CCC(CC(C)(C)O)CC2)c1C#Cc1ccc(N)nc1 [Example B-14]	26	9	29
CCc1ncnc(N2CCC(O)CC2)c1C#Cc1ccc(NC)nc1 [Example B-87]	76	20	104
CCc1ncnc(N2CCn3c(C)cnc3C2)c1C#Cc1ccc(N)nc1 [Example B-78]	72	31	101
CCc1ncnc(N2CCC(C(C)(C)O)CC2)c1C#Cc1ccc(N)nc1 [Example B-11]	31	7	60
COC1CCN(c2ncnc(C)c2C#Cc2ccc(N)nc2)CC1 [Example B-38]	37	18	122
COCCNC(=O)CC1CCN(c2ncnc(C)c2C#Cc2ccc(N)nc2)CC1 [Example E-4]	66	144	300
CCc1ncnc(N2CCC3(CCN(C(C)=O)CC3)CC2)c1C#Cc1ccc(N)nc1 [Example G-11]	36	30	55
CCc1ncnc(N2CCN(C(=O)NC)CC2)c1C#Cc1ccc(N)nc1 [Example G-1]	33	84	212
CCc1ncnc(N2CCOC(C)(C)C2)c1C#Cc1ccc(N)nc1 [Example B-50]	49	30	56
CCc1ncnc(N2CCC(O)CC2)c1C#Cc1ccc(C)nc1 [Example B-70]	139	141	684
Cc1ncnc(N2CCC3(CCN(C)CC3)CC2)c1C#Cc1ccc(N)nc1 [Example B-80]	99	25	161
CCc1ncnc(N2CCN(CC(C)(C)O)CC2)c1C#Cc1ccc(N)nc1 [Example B-81]	143	7	71
CCc1ncnc(N2CCC(F)(F)CC2)c1C#Cc1ccc(N)nc1 [Example B-42]	196	31	105
CCc1ncnc(N2CCC(O)(C(C)C)CC2)c1C#Cc1ccc(N)nc1 [Example B-63]	15	0.61	8
CCc1ncnc(N2CCC(C)(O)CC2)c1C#Cc1ccc(C)nc1 [Example B-73]	84	30	160

Compound	IC50 PI3Ka (PI3Kalpha) [nM]	IC50 (mTOR) [nM]	EC50 [1] [nM]
Cc1ncnc(N2CCN(C(=O)c3ccno3)CC2)c1C#Cc1ccc(N)nc1 [Example G-9]	39	55	310
Cc1ncnc(N2CCN(CC(C)(C)O)CC2)c1C#Cc1ccc(N)nc1 [Example B-79]	53	18	238
Cc1ncnc(N2CCC(O)(C(F)(F)F)CC2)c1C#Cc1ccc(N)nc1 [Example B-32]	24	3	15
CCc1ncnc(N2CCN(C(C)=O)CC2)c1C#Cc1ccc(N)nc1 [Example B-40]	62	32	187
CCc1ncnc(N2CCC(C)(OC)CC2)c1C#Cc1ccc(N)nc1 [Example B-59]	53	5	23
Cc1ncnc(N2CCC3(CC2)OCCCO3)c1C#Cc1ccc(N)nc1 [Example B-60]	14	6	75
CCc1ncnc(N2CCC3(CC2)OCCCO3)c1C#Cc1ccc(N)nc1 [Example B-61]	43	4	33
Cc1ncnc(N2CCC(CNC(=O)CC3CCCC3)CC2)c1C#Cc1ccc(N)nc1 [Example F-3]	39	16	335
Cc1ncnc(N2CCN(C(=O)C3CCC3)CC2)c1C#Cc1ccc(N)nc1 [Example G-8]	22	64	206
COCCC(=O)NCC1CCN(c2ncnc(C)c2C#Cc2ccc(N)nc2)CC1 [Example F-5]	69	18	141
CCc1ncnc(N2CCC(O)C(C)C2)c1C#Cc1ccc(N)nc1 (stereo not drawn) [Example B-64]	55	10	53
CCOC1CCN(c2ncnc(CC)c2C#Cc2ccc(C)nc2)CC1 [Example B-69]	99	168	783
CCc1ncnc(N2CCCC2)c1C#Cc1ccc(N)nc1 [Example B-58]	131	42	492
CCc1ncnc(N2CCS(=O)(=O)CC2)c1C#Cc1ccc(N)nc1 [Example B-53]	380	12	142
CCc1ncnc(N2CCC(=O)CC2)c1C#Cc1ccc(N)nc1 [Example B-62]	109	28	105
Cc1ncnc(N2CCOCC2)c1C#Cc1ccc(N)nc1 [Example B-4]	37	38	319
COCCN1CCN(c2ncnc(C)c2C#Cc2ccc(N)nc2)CC1 [Example B-2]	145	32	301
Cc1ncnc(N2CCC(CC(=O)N3CCOCC3)CC2)c1C#Cc1ccc(N)nc1 [Example E-6]	83	59	358
CCc1ncnc(N2CCC(C(F)(F)F)CC2)c1C#Cc1ccc(N)nc1 [Example B-41]	201	9	19
CCc1ncnc(N2CCC(OC)CC2)c1C#Cc1ccc(NC)nc1 [Example B-86]	94	9	115
CCc1ncnc(N2CCC(O)(c3ccccc3)CC2)c1C#Cc1ccc(N)nc1 [Example B-16]	91	7	34
